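All cell lines were grown in 96-well plates and treated with compound for 48 hours. GI50: concentration for 50% inhibition of growth. TGI marks complete inhibition of growth.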
Experiments:
Assay in all cases: NCI anticancer screen, dose series, 48 h
SNB-19 CNS = system: SNB-19 CNS
HOP-62 NSCLC = system: HOP-62 NSCLC
HCC-2998 colon = system: HCC-2998 colon
T-47D breast = system: T-47D breast
IGROV1 ovarian = system: IGROV1 ovarian
NCI-H522 lung = system: NCI-H522 lung
SN12C renal = system: SN12C renal
RPMI-8226 leukemia = system: RPMI-8226 leukemia
SF-539 CNS = system: SF-539 CNS
EKVX NSCLC = system: EKVX NSCLC
A549 NSCLC = system: A549 NSCLC
MDA-MB-435 = system: MDA-MB-435
U251 CNS = system: U251 CNS
SK-MEL-28 melanoma = system: SK-MEL-28 melanoma
OVCAR-5 ovarian = system: OVCAR-5 ovarian
ACHN renal = system: ACHN renal
NCI-H23 lung = system: NCI-H23 lung
MALME-3M melanoma = system: MALME-3M melanoma
COLO 205 colon = system: COLO 205 colon
HL-60(TB) leukemia = system: HL-60(TB) leukemia
M14 melanoma = system: M14 melanoma
CAKI-1 renal = system: CAKI-1 renal
NCI/ADR-RES ovarian = system: NCI/ADR-RES ovarian
SF-295 CNS = system: SF-295 CNS
HS 578T breast = system: HS 578T breast
DU-145 prostate = system: DU-145 prostate
HCT-15 colon = system: HCT-15 colon
SF-268 CNS = system: SF-268 CNS
SW-620 colon = system: SW-620 colon
KM12 colon = system: KM12 colon
HT29 colon = system: HT29 colon
OVCAR-4 ovarian = system: OVCAR-4 ovarian
SR leukemia = system: SR leukemia
SK-MEL-2 melanoma = system: SK-MEL-2 melanoma
UO-31 renal = system: UO-31 renal
BT-549 breast = system: BT-549 breast
LOX IMVI melanoma = system: LOX IMVI melanoma
UACC-257 melanoma = system: UACC-257 melanoma
SNB-75 CNS = system: SNB-75 CNS
OVCAR-8 ovarian = system: OVCAR-8 ovarian
MDA-MB-231 breast = system: MDA-MB-231 breast
MDA-MB-468 breast = system: MDA-MB-468 breast
786-0 renal = system: 786-0 renal
MCF7 breast = system: MCF7 breast
NCI-H460 lung = system: NCI-H460 lung
TK-10 renal = system: TK-10 renal
NCI-H226 lung = system: NCI-H226 lung
SK-OV-3 ovarian = system: SK-OV-3 ovarian
HOP-92 NSCLC = system: HOP-92 NSCLC
PC-3 prostate = system: PC-3 prostate
MOLT-4 leukemia = system: MOLT-4 leukemia
UACC-62 melanoma = system: UACC-62 melanoma
RXF 393 renal = system: RXF 393 renal
HCT-116 colon = system: HCT-116 colon
A498 renal = system: A498 renal
OVCAR-3 ovarian = system: OVCAR-3 ovarian
K-562 leukemia = system: K-562 leukemia
CCRF-CEM leukemia = system: CCRF-CEM leukemia
SK-MEL-5 melanoma = system: SK-MEL-5 melanoma

## COc1ccc(NC(=O)CSc2nnc(-c3ccc(-c4nc5ccc(Cl)cc5[nH]4)cc3)o2)cc1
SNB-19 CNS
  GI50: 2.54 µM
  TGI: 7.59 µM
HOP-62 NSCLC
  GI50: 2.52 µM
  TGI: 5.37 µM
HCC-2998 colon
  GI50: 43.5 µM
  TGI: > 100 µM
T-47D breast
  GI50: 14.2 µM
  TGI: 57.9 µM
IGROV1 ovarian
  GI50: 12.4 µM
  TGI: 25.3 µM
NCI-H522 lung
  GI50: 2.11 µM
  TGI: 8.03 µM
SN12C renal
  GI50: 3.27 µM
  TGI: 16.3 µM
RPMI-8226 leukemia
  GI50: 12 µM
  TGI: > 100 µM
SF-539 CNS
  GI50: 1.9 µM
  TGI: 4.52 µM
EKVX NSCLC
  GI50: 2.67 µM
  TGI: 13.3 µM
A549 NSCLC
  GI50: 2.44 µM
  TGI: 10.7 µM
MDA-MB-435
  GI50: 1.87 µM
  TGI: 8.03 µM
U251 CNS
  GI50: 4.83 µM
  TGI: 16.5 µM
SK-MEL-28 melanoma
  GI50: 1.96 µM
  TGI: 5.79 µM
OVCAR-5 ovarian
  GI50: 6.44 µM
  TGI: 22 µM
ACHN renal
  GI50: 2.69 µM
  TGI: 11.6 µM
NCI-H23 lung
  GI50: 2.97 µM
  TGI: 11.4 µM
MALME-3M melanoma
  GI50: 1.9 µM
  TGI: 5.63 µM
COLO 205 colon
  GI50: 19 µM
  TGI: 92.1 µM
HL-60(TB) leukemia
  GI50: > 100 µM
  TGI: > 100 µM
M14 melanoma
  GI50: 3.74 µM
  TGI: 17.2 µM
CAKI-1 renal
  GI50: 1.54 µM
  TGI: 3.38 µM
NCI/ADR-RES ovarian
  GI50: 10.2 µM
  TGI: 42.9 µM
SF-295 CNS
  GI50: 1.36 µM
  TGI: 4.05 µM
HS 578T breast
  GI50: 2.28 µM
  TGI: 7.23 µM
DU-145 prostate
  GI50: 2.29 µM
  TGI: 5.61 µM
HCT-15 colon
  GI50: 7.77 µM
  TGI: 84.2 µM
SF-268 CNS
  GI50: 2.22 µM
  TGI: 5.48 µM
SW-620 colon
  GI50: 4.54 µM
  TGI: 20.6 µM
KM12 colon
  GI50: 5.16 µM
  TGI: 25.7 µM
HT29 colon
  GI50: 4.9 µM
  TGI: 23.3 µM
OVCAR-4 ovarian
  GI50: 3.02 µM
  TGI: 10 µM
SR leukemia
  GI50: 10.3 µM
  TGI: > 100 µM
SK-MEL-2 melanoma
  GI50: 6.96 µM
  TGI: 25.4 µM
UO-31 renal
  GI50: 10.9 µM
  TGI: 23.1 µM
BT-549 breast
  GI50: 2.75 µM
  TGI: 6.12 µM
LOX IMVI melanoma
  GI50: 2.29 µM
  TGI: 6.68 µM
UACC-257 melanoma
  GI50: 3.83 µM
  TGI: 23.6 µM
SNB-75 CNS
  GI50: 1.42 µM
  TGI: 3.86 µM
OVCAR-8 ovarian
  GI50: 3.58 µM
  TGI: 26 µM
MDA-MB-231 breast
  GI50: 3.77 µM
  TGI: 13.8 µM
MDA-MB-468 breast
  GI50: 15 µM
  TGI: 38.4 µM
786-0 renal
  GI50: 1.74 µM
  TGI: 3.56 µM
MCF7 breast
  GI50: 4.39 µM
  TGI: 74.2 µM
NCI-H460 lung
  GI50: 1.35 µM
  TGI: 4.16 µM
TK-10 renal
  GI50: 16.5 µM
  TGI: 30.1 µM
NCI-H226 lung
  GI50: 1.94 µM
  TGI: 5.19 µM
SK-OV-3 ovarian
  GI50: 2.87 µM
  TGI: 7.61 µM
HOP-92 NSCLC
  GI50: 2.62 µM
  TGI: 10.6 µM
PC-3 prostate
  GI50: 1.61 µM
  TGI: 4.27 µM
MOLT-4 leukemia
  GI50: 6.46 µM
  TGI: > 100 µM
UACC-62 melanoma
  GI50: 3.81 µM
  TGI: 15.3 µM
RXF 393 renal
  GI50: 2.3 µM
  TGI: 5.61 µM
HCT-116 colon
  GI50: 3.91 µM
  TGI: 26.7 µM
A498 renal
  GI50: 4.26 µM
  TGI: 16 µM
OVCAR-3 ovarian
  GI50: 3.72 µM
  TGI: 14 µM
K-562 leukemia
  GI50: 2.74 µM
  TGI: > 100 µM
CCRF-CEM leukemia
  GI50: 6.86 µM
  TGI: > 100 µM
SK-MEL-5 melanoma
  GI50: 3.02 µM
  TGI: 11.8 µM

## COc1cc(C(=O)/C=C/c2cc(-c3ccc4c(c3)OCO4)n[nH]2)cc(OC)c1OC
MDA-MB-468 breast
  GI50: 1.4 µM
  TGI: 3.5 µM

## CCN(CC)C1Oc2cc3c(cc2C(c2cc(OC)c(O)c(OC)c2)C1C)OCO3 (centres undefined)
MDA-MB-468 breast
  GI50: 11.6 µM
  TGI: 70.7 µM

## O=C1/C(=C\c2ccc(F)cc2)CN(C(=O)c2ccccc2F)C/C1=C\c1ccc(F)cc1
MDA-MB-468 breast
  GI50: 1.51 µM
  TGI: 3.4 µM
